Test results taken from patent publication US20170121315A1, “HETEROBICYCLICALLY SUBSTITUTED 4-OXOBUTANE ACID DERIVATIVES AND USE THEREOF” (priority 2014, published 2017).

How the values were obtained:
Type in all cases: biochemical
[1] = biological target: T1, human macrophage elastase (HME/hMMP-12) (Homo sapiens, UniProt P39900); assay: In vitro HME inhibition test (standard or high-sensitivity); settings: in some cases mean values, rounded to two significant figures
T1 construct: purchased R&D Systems 917-MP
How it was run: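 Autoactivated HME (0.5 nM; high-sensitivity format 0.05 nM, ~16 h) with 5 μM quenched Mca-PLGLEEA-Dap(Dnp)-NH2 substrate in HEPES pH 7.4, NaCl, CaCl2, ZnCl2, EDTA, Brij buffer, 2 h at 37° C. Fluorescence at ex 323/em 393 nm; IC50 from signal versus concentration.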

MMP-1 = biological target: T2, MMP-1 (Homo sapiens, UniProt P03956); assay: In vitro MMP-1 inhibition test; settings: human MMP-1
T2 construct: purchased R&D Systems 901-MP
T2 sequence (P03956 100-469): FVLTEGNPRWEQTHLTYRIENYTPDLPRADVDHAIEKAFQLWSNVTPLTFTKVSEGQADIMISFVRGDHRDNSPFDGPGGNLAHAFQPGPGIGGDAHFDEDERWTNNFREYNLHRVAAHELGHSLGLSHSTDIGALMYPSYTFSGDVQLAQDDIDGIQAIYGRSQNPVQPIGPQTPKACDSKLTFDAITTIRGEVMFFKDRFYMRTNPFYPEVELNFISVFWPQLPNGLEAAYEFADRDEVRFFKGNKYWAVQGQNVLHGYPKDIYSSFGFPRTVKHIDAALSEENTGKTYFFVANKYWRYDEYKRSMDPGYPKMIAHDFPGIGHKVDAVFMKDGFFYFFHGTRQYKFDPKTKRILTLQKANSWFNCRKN
How it was run: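 Recombinant enzyme was APMA-activated and used at e.g. 2 nM final in 50 mM Tris/HCl pH 7.5, 10 mM CaCl2, 150 mM NaCl, 0.05% Brij-35. Reaction was started with quenched Mca-Pro-Leu-Gly-Leu-Dpa(Dnp)-Ala-Arg-NH2 (e.g. 10 μM final), and fluorescence (ex 320/em 410 nm) was followed e.g. over 120 min at 32 °C. IC50 is the concentration giving 50% signal.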

MMP-7 = biological target: T3, MMP-7 (Homo sapiens, UniProt P09237); assay: In vitro MMP-7 inhibition test; settings: human MMP-7
T3 construct: purchased R&D Systems 907-MP
T3 sequence (P09237 95-267): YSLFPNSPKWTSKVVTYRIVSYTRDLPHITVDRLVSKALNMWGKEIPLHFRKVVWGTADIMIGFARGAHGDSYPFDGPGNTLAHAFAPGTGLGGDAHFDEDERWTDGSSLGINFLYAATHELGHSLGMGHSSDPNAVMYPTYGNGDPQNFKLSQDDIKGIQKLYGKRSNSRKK

MMP-13 = biological target: T4, MMP-13 (Homo sapiens, UniProt P45452); assay: In vitro MMP-13 inhibition test; settings: human MMP-13
T4 construct: purchased R&D Systems 511-MP
How it was run: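 APMA-activated recombinant enzyme (e.g. 0.1 nM final) was tested with compounds (e.g. 1 nM–30 µM, DMSO) in 50 mM Tris/HCl pH 7.5, 10 mM CaCl2, 150 mM NaCl, 0.05% Brij-35. Mca-PLGL-Dpa(Dnp)-AR-NH2 was the substrate (e.g. 10 µM). Fluorescence (ex 320/em 410 nm) was followed e.g. 120 min at 32 °C, and IC50 was read at 50% signal.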

T1 sequence (P39900 106-470): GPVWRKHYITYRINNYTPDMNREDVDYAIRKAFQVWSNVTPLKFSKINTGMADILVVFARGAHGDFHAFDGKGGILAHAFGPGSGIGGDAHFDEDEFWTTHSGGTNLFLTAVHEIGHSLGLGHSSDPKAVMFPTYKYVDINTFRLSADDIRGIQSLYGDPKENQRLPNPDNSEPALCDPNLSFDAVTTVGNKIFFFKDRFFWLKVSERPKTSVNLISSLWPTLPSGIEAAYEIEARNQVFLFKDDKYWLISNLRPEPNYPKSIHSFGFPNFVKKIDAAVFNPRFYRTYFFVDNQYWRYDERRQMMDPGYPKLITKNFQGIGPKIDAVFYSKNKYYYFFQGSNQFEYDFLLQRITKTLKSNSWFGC

SMILES: O=C(O)[C@@H]1[C@@H](Cn2nnc3ccc(C(F)(F)F)cc3c2=O)CC[C@H]1C(=O)c1cc2cc(OCCc3ccccc3)ccc2o1 (single isomer, unassigned; enantiomer 2) [Example 159, (+)-(1RS,2SR,5RS)-2-{[4-Oxo-6-(trifluoromethyl)-1,2,3-benzotriazin-3(4H)-yl]methyl}-5-{[5-(2-phenylethoxy)-1-benzofur-2-yl]carbonyl}cyclopentanecarboxylic acid (enantiomer 2)]
- IC50 [1]: 0.063 nM
- IC50 (MMP-1): > 40000 nM
- IC50 (MMP-7): 300 nM
- IC50 (MMP-13): 660 nM
